From patent publication US12202839B2, “In-flow photooxygenation of aminothienopyridinones generates PTP4A3 phosphatase inhibitors” (University of Virginia Patent Foundation, priority 2018, dated 2025)
“Also recorded” adds a separate entry of the source.

Experiments:
OVCAR4 [1] = experiment: Loss of spheroid viability after 48-hour exposure, preexisting spheroids, CellTiterGlo 3D; format: cell-based; conditions: Homo sapiens, OVCAR-4, 48 h, N=3, read-out: Cellular IC50 values for loss of spheroid viability after 48-hour exposure (μM ± S.E.M.)
MDA-MB-231 = experiment: as above; format: cell-based; conditions: Homo sapiens, MDA-MB-231 spheroids, N=3, read-out: Cellular IC50 values for loss of spheroid viability after 48-hour exposure (μM ± S.E.M.)
Kuramochi [2] = experiment: as above; format: cell-based; conditions: Homo sapiens, N=3, read-out: Cellular IC50 values for loss of spheroid viability after 48-hour exposure (μM ± S.E.M.)
Hs578T [3] = experiment: as above; format: cell-based; conditions: Homo sapiens, Hs-578T, N=3, read-out: Cellular IC50 values for loss of spheroid viability after 48-hour exposure (μM ± S.E.M.)
[4] = biological target: Recombinant human PTP4A3 phosphatase (Homo sapiens (Human), UniProt O75365); experiment: In vitro inhibition of PTP4A3 phosphatase activity (automated enzymatic assay); format: biochemical; conditions: mean of N independent assays, 10-point concentration curves, six replicates; read-out: IC50 (nM) ± SEM
Recombinant human PTP4A3 phosphatase, sequence (O75365 whole entry): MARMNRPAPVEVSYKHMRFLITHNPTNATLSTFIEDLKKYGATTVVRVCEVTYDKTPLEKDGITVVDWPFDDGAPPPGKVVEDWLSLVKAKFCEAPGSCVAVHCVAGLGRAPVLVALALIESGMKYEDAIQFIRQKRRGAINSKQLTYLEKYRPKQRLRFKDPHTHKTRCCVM

[5] = biological target: recombinant human His6-tagged PTP4A3 (Homo sapiens (Human), UniProt O75365); experiment: In vitro biochemical analysis of PTP4A inhibition, DiFMUP substrate; conditions: for IC50: DiFMUP 12 μM, 25° C., 25 minutes, read-out: IC50 values for Compounds Inhibiting Activity of PTP4A Family Members (mean (nM) ± S.E.M.), PTP4A3; for preference among the PTP4A family members (PTP4A3 versus PTP4A1, PTP4A2), in words: comparison of the IC50 values of Table 4
recombinant human His6-tagged PTP4A3, sequence (O75365 whole entry): as above

[6] = biological target: recombinant human His6-tagged PTP4A1 (Homo sapiens (Human), UniProt Q93096); experiment: as above; conditions: for IC50: DiFMUP 12 μM, 25° C., 25 minutes, read-out: IC50 values for Compounds Inhibiting Activity of PTP4A Family Members (mean (nM) ± S.E.M.), PTP4A1
recombinant human His6-tagged PTP4A1, sequence (Q93096 whole entry): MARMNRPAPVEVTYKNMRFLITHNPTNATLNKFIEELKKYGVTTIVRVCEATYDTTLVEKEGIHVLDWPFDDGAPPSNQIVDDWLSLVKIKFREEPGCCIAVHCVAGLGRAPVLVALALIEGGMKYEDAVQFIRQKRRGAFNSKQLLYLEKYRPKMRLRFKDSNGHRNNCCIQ

[7] = biological target: recombinant human His6-tagged PTP4A2 (Homo sapiens (Human), UniProt Q12974); experiment: as above; conditions: for IC50: DiFMUP 12 μM, 25° C., 25 minutes, read-out: IC50 values for Compounds Inhibiting Activity of PTP4A Family Members (mean (nM) ± S.E.M.), PTP4A2
recombinant human His6-tagged PTP4A2, sequence (Q12974 whole entry): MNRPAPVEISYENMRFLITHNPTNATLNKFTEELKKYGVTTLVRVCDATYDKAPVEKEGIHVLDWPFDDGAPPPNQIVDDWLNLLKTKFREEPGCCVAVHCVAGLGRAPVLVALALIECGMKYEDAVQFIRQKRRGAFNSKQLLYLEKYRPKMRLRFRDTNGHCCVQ

OVSAHO [8] = experiment: Monolayer cancer cell viability, Alamar blue; format: cell-based; conditions: Homo sapiens, OVSAHO, 48 h, read-out: EC50 (mean μM ± SEM)
[9] = test system: U937 (human Histiocytic lymphoma); experiment: Leukemia/lymphoma cell viability, Alamar blue; format: cell-based; conditions: U-937, 48 h, read-out: EC50 (mean μM ± SEM)
V581 [10] = experiment: Spheroid growth viability, CellTiterGlo 3D; format: cell-based; conditions: 48 h, read-out: EC50 (mean μM ± SEM)
[11] = test system: HL60-VCR (drug resistant human APML); experiment: Leukemia/lymphoma cell viability, Alamar blue; format: cell-based; conditions: HL60/VCR, 48 h, read-out: EC50 (mean μM ± SEM)
RS4;11 (human BALL) = experiment: Leukemia/lymphoma cell viability, Alamar blue; format: cell-based; conditions: RS4-11, 48 h, read-out: EC50 (mean μM ± SEM)
Kasumi (human AML) = experiment: Leukemia/lymphoma cell viability, Alamar blue; format: cell-based; conditions: 48 h, read-out: EC50 (mean μM ± SEM)
Kuramochi [12] = experiment: Spheroid growth viability, CellTiterGlo 3D; format: cell-based; conditions: 48 h, read-out: EC50 (mean μM ± SEM)
K562 (human CML) = experiment: Leukemia/lymphoma cell viability, Alamar blue; format: cell-based; conditions: K562, 48 h, read-out: EC50 (mean μM ± SEM)
COV362-47R [13] = experiment: Monolayer cancer cell viability, Alamar blue; format: cell-based; conditions: COV362-47R monolayer, 48-hour exposure, read-out: EC50 (mean μM ± SEM)
COV362 [14] = experiment: Monolayer cancer cell viability, Alamar blue; format: cell-based; conditions: 48-hour exposure, read-out: EC50 (mean μM ± SEM)
OVCAR4 [15] = experiment: Monolayer cancer cell viability, Alamar blue; format: cell-based; conditions: Homo sapiens, OVCAR-4, 48 h, read-out: EC50 (mean μM ± SEM)
COV362-47R [16] = experiment: Spheroid growth viability, CellTiterGlo 3D; format: cell-based; conditions: COV362-47R spheroid, 48 hour exposure, read-out: EC50 (mean μM ± SEM)
COV362 [17] = experiment: Spheroid growth viability, CellTiterGlo 3D; format: cell-based; conditions: 48 hour exposure, read-out: EC50 (mean μM ± SEM)
OVCAR4 [18] = experiment: Spheroid growth viability, CellTiterGlo 3D; format: cell-based; conditions: Homo sapiens, OVCAR-4, 48 h, read-out: EC50 (mean μM ± SEM)
HL60 (human APML) = experiment: Leukemia/lymphoma cell viability, Alamar blue; format: cell-based; conditions: HL-60, 48 h, read-out: EC50 (mean μM ± SEM)
MV-4-11 (human AML/ALL) = experiment: Leukemia/lymphoma cell viability, Alamar blue; format: cell-based; conditions: MV4-11, 48 h, read-out: EC50 (mean μM ± SEM)
C1498 (mouse AML) = experiment: Leukemia/lymphoma cell viability, Alamar blue; format: cell-based; conditions: C1498, 48 h, read-out: EC50 (mean μM ± SEM)
Hs578T [19] = experiment: Monolayer cancer cell viability, Alamar blue; format: cell-based; conditions: Homo sapiens, Hs-578T, 48 h, read-out: EC50 (mean μM ± SEM)
V581 [20] = experiment: Monolayer cancer cell viability, Alamar blue; format: cell-based; conditions: 48 h, read-out: EC50 (mean μM ± SEM)
OVSAHO [21] = experiment: Spheroid growth viability, CellTiterGlo 3D; format: cell-based; conditions: Homo sapiens, 48 h, read-out: EC50 (mean μM ± SEM)
MOLT4 (human TALL) = experiment: Leukemia/lymphoma cell viability, Alamar blue; format: cell-based; conditions: MOLT-4, 48 h, read-out: EC50 (mean μM ± SEM)

N=C1C(=O)NC(=O)c2cc(-c3ccccc3)sc21 [Compound 2, 7-Imino-2-phenylthieno[3,2-c]pyridine-4,6(5H,7H)-dione, reference compound]
IC50 (OVCAR4 [1]): 4.42 µM
IC50 (MDA-MB-231): 32.7 ± 7.02 µM
IC50 (Kuramochi [2]): 13.2 ± 0.65 µM
IC50 (Hs578T [3]): 8.48 ± 2.38 µM

N=C1C(=O)NC(=O)c2cc(-c3ccc(Cl)cc3)sc21 [Compound 9b, 2-(4-Chlorophenyl)-7-iminothieno[3,2-c]pyridine-4,6(5H,7H)-dione]
IC50 [4]: 41.9 ± 1.15 nM

N=C1C(=O)NC(=O)c2cc(-c3ccc(F)cc3)sc21 [Compound 9d, 2-(4-Fluorophenyl)-7-iminothieno[3,2-c]pyridine-4,6(5H,7H)-dione]
IC50 [4]: 71 ± 2.54 nM

CC(C)(C)C(=O)Oc1ccc(-c2cc3c(s2)C(=N)C(=O)NC3=O)cc1 [Compound 9e, 4-(7-Imino-4,6-dioxo-4,5,6,7-tetrahydrothieno[3,2-c]pyridin-2-yl)phenyl pivalate]
IC50 [4]: 256 ± 12.3 nM

N=C1C(=O)NC(=O)c2cc(-c3cccc(C(F)(F)F)c3)sc21 [Compound 9g, 7-Imino-2-(3-(trifluoromethyl)phenyl)thieno[3,2-c]pyridine-4,6(5H,7H)-dione]
IC50 [4]: 193 ± 6.06 nM

N=C1C(=O)NC(=O)c2cc(-c3cccc(Cl)c3)sc21 [Compound 9h, 2-(3-Chlorophenyl)-7-iminothieno[3,2-c]pyridine-4,6(5H,7H)-dione]
IC50 [4]: 65.7 ± 4.13 nM

Cc1cccc(-c2cc3c(s2)C(=N)C(=O)NC3=O)c1 [Compound 9i, 7-Imino-2-(m-tolyl)thieno[3,2-c]pyridine-4,6(5H,7H)-dione]
IC50 [4]: 53.4 ± 1.46 nM

COc1cccc(-c2cc3c(s2)C(=N)C(=O)NC3=O)c1 [Compound 9j, 2-(3-Methoxyphenyl)-7-iminothieno[3,2-c]pyridine-4,6(5H,7H)-dione]
IC50 [4]: 47.6 ± 2.68 nM

N=C1C(=O)NC(=O)c2cc(-c3ccccc3Cl)sc21 [Compound 9k, 2-(2-Chlorophenyl)-7-iminothieno[3,2-c]pyridine-4,6(5H,7H)-dione]
IC50 [4]: 36.1 ± 1.43 nM
IC50 (OVCAR4 [1]): 12.3 ± 2.26 µM
IC50 (MDA-MB-231): > 50 µM
IC50 (Kuramochi [2]): > 50 µM
IC50 (Hs578T [3]): 14.4 ± 4.91 µM
IC50 [5]: 36.1 nM
preference among the PTP4A family members (PTP4A3 versus PTP4A1, PTP4A2), in words [5]: more pronounced preference for PTP4A3
IC50 [6]: 49 ± 5 nM

N=C1C(=O)NC(=O)c2cc(-c3ccccc3F)sc21 [Compound 9l, 2-(2-Fluorophenyl)-7-iminothieno[3,2-c]pyridine-4,6(5H,7H)-dione]
IC50 [4]: 53.4 ± 1.46 nM

N=C1C(=O)NC(=O)c2cc(-c3ccc(F)c(Cl)c3)sc21 [Compound 9n, 2-(3-Chloro-4-fluorophenyl)-7-iminothieno[3,2-c]pyridine-4,6(5H,7H)-dione]
IC50 [4]: 67.7 ± 3 nM

N=C1C(=O)NC(=O)c2cc(-c3ccc(OCCN4CCOCC4)cc3)sc21 [Compound 9o, 7-Imino-2-(4-(2-morpholinoethoxy)phenyl)thieno[3,2-c]pyridine-4,6(5H, 7H)-dione]
IC50 [4]: 98.2 ± 2.49 nM
IC50 (OVCAR4 [1]): 19.6 ± 4.66 µM
IC50 (MDA-MB-231): > 50 µM
IC50 (Kuramochi [2]): > 50 µM
IC50 (Hs578T [3]): 12 ± 3.84 µM
IC50 [5]: 98.2 nM
preference among the PTP4A family members (PTP4A3 versus PTP4A1, PTP4A2), in words [5]: little preference
IC50 [7]: 73.9 ± 10 nM
IC50 [6]: 43.2 ± 8.5 nM

CN1C(=O)C(=N)c2sc(-c3ccccc3)cc2C1=O [Compound 9p, 7-Imino-5-methyl-2-phenylthieno[3,2-c]pyridine-4,6(5H,7H)-dione]
IC50 [4]: 48.9 ± 12 nM
IC50 (OVCAR4 [1]): 11.5 ± 2.38 µM
IC50 (MDA-MB-231): 61.5 ± 9.66 µM
IC50 (Kuramochi [2]): 34.1 ± 8.6 µM
IC50 (Hs578T [3]): 10.1 ± 1.93 µM
IC50 [5]: 86 nM
preference among the PTP4A family members (PTP4A3 versus PTP4A1, PTP4A2), in words [5]: more pronounced preference for PTP4A3
IC50 [6]: 133 ± 31.7 nM

N=C1C(=O)N(CC2CC2)C(=O)c2cc(-c3ccccc3)sc21 [Compound 9q, 5-(Cyclopropylmethyl)-7-imino-2-phenylthieno[3,2-c]pyridine-4,6(5H,7H)-dione]
IC50 [4]: 85.7 ± 5.96 nM

N=C1C(=O)NC(=O)c2cc(-c3ccc(OCCCCNC(=O)CC45CC6CC(CC(C6)C4)C5)cc3)sc21 [EJR-876-35]
EC50 (OVSAHO [8]): 18.8 ± 2.2 µM
EC50 [9]: 6.87 ± 0.4 µM
EC50 (V581 [10]): 44.4 µM
EC50 [11]: 17.7 ± 3.8 µM
EC50 (RS4;11 (human BALL)): 2.2 ± 0.4 µM
EC50 (Kasumi (human AML)): 4.3 ± 1.3 µM
EC50 (Kuramochi [12]): > 50 µM
EC50 (K562 (human CML)): 25.6 ± 2.8 µM
EC50 (COV362-47R [13]): 25.2 ± 6.2 µM
EC50 (COV362 [14]): 25.7 ± 5.3 µM
EC50 (OVCAR4 [15]): 15.5 ± 4.7 µM
EC50 (COV362-47R [16]): > 50 µM
EC50 (COV362 [17]): 16 ± 3.7 µM
EC50 (OVCAR4 [18]): 16.7 ± 1.9 µM
EC50 (HL60 (human APML)): 1.6 ± 0.2 µM
EC50 (MV-4-11 (human AML/ALL)): 4.5 ± 1.8 µM
EC50 (C1498 (mouse AML)): 1.2 ± 0.2 µM
EC50 (Hs578T [19]): 6.2 µM
EC50 (V581 [20]): > 50 µM
EC50 (OVSAHO [21]): 21.1 ± 2.8 µM
EC50 (MOLT4 (human TALL)): 1 ± 0.1 µM

O=c1[nH]c(=O)c2cc(-c3ccccc3)sc2[nH]1 [JMS-038, 6-phenylthieno[2,3-d]pyrimidine-2,4(1H,3H)-dione, reference compound]
IC50 (OVCAR4 [1]): > 50 µM
IC50 (MDA-MB-231): > 50 µM
IC50 (Kuramochi [2]): > 50 µM
IC50 (Hs578T [3]): > 50 µM
IC50 [5]: > 1000 nM
inhibition of PTP4A3 (in words) ([5]; DiFMUP, 25-minute incubation): failed to inhibit; also recorded: inactive
IC50 [7]: > 1000 nM
inhibition of PTP4A2 (in words) ([7]; DiFMUP, 25-minute incubation): inactive
IC50 [6]: > 1000 nM
inhibition of PTP4A1 (in words) ([6]; DiFMUP, 25-minute incubation): inactive

CN1C(=O)C(=O)c2sc(-c3ccccc3)cc2C1=O [NRT-892-04]
IC50 [4]: 32.2 ± 3.52 nM
